From patent publication US12570655B2, “Cysteine covalent modifiers of AKT1 and uses thereof” (Terremoto Biosciences, Inc., priority 2023, dated 2026)
Like-named read-outs stand apart in the source and are kept apart here.

Columns and labels:
Assay type in all cases: cell-based
[1] = molecular target: T1, AKT1 E17K (Homo sapiens, UniProt P31749, E17K); experiment: Live cell AKT1 E17K target engagement by NanoBRET competitive probe displacement; settings: HEK293 cells transfected with kinase-NanoLuciferase fusion, 2 h at 37° C.
T1 construct: expressed in transfected cells; host or cells: HEK293
T1 sequence (P31749 whole entry E17K, the tested form may be a part): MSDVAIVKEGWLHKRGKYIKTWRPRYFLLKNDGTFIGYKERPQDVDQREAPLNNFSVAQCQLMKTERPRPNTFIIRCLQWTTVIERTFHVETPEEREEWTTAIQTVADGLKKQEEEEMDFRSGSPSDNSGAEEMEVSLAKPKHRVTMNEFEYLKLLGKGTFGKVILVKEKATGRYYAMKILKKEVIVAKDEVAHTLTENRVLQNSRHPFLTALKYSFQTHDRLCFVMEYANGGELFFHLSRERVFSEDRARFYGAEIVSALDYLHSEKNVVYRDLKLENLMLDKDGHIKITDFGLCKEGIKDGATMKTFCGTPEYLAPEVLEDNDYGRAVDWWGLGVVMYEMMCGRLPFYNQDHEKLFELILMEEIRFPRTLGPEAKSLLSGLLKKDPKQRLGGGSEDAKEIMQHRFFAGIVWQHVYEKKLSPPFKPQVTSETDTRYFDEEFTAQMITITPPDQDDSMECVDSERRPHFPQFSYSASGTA
Summary of the method: (§1)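 Steps: overnight transfection of HEK293 with kinase-NanoLuc plasmids; addition of compound dilutions and tracer (~EC50); 2 h incubation at 37 °C; substrate plus extracellular luciferase inhibitor; luminescence at 460 and 600 nm. IC50 values came from fitting the BRET ratio to a Hill equation.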

[2] = tested on: LAPC4 prostate cancer cells; experiment: Antiproliferative effects in LAPC4 cells (CellTiter Glo); settings: LAPC4 cells (AKT1 E17K allele), read-out: LAPC4 proliferation IC50
Summary of the method: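 Growth inhibition is gauged by intracellular ATP content, measured with CellTiter Glo 72 h after compound addition to 1,000 seeded cells per well. IC50 derives from a Hill equation fit.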

[3] = molecular target: T2, AKT2 (Homo sapiens, UniProt P31751); experiment: Live cell AKT2 target engagement by NanoBRET competitive probe displacement; settings: HEK293 cells transfected with kinase-NanoLuciferase fusion, 2 h at 37° C.
T2 construct: expressed in transfected cells; host or cells: HEK293
T2 sequence (P31751 whole entry, the tested form may be a part): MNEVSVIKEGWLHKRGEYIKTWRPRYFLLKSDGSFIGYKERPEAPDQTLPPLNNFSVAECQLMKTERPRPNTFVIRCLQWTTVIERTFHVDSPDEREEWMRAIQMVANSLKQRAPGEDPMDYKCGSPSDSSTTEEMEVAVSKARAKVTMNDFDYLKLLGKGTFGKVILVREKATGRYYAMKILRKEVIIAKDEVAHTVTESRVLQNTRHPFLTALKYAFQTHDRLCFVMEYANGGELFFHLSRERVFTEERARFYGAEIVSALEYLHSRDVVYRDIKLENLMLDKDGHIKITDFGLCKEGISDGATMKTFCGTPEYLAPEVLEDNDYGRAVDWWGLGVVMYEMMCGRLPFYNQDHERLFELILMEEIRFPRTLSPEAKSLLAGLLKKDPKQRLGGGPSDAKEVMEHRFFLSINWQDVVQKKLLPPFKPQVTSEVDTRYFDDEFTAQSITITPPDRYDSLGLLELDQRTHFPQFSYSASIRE
Summary of the method: as §1

[4] = molecular target: T3, AKT1 WT (Homo sapiens, UniProt P31749); experiment: Live cell AKT1 WT target engagement by NanoBRET competitive probe displacement; settings: HEK293 cells transfected with kinase-NanoLuciferase fusion, 2 h at 37° C.
T3 construct: expressed in transfected cells; host or cells: HEK293
T3 sequence (P31749 whole entry, the tested form may be a part): as the sequence (P31749 whole entry E17K, the tested form may be a part) above, with K17E counted along it
Summary of the method: as §1

Compound	IC50 [1] [nM]	IC50 ([2]; Homo sapiens, LAPC4, 72 h) [nM]	IC50 [3] [nM]	IC50 [4] [nM]	IC50 ([2]; 72 h) [nM]
C=CC(=O)N1CCC(N[C@H]2CCc3cc(-n4c(-c5cccnc5N)nc5ccc(-n6ccc(F)n6)nc54)ccc32)CC1 [Example 49, (S)-1-(4-((5-(2-(2-aminopyridin-3-yl)-5-(3-fluoro-1H-pyrazol-1-yl)-3H-imidazo[4,5-b]pyridin-3-yl)-2,3-dihydro-1H-inden-1-yl)amino)piperidin-1-yl)prop-2-en-1-one]	146	406	980	50.9	
C=CC(=O)N1CCC(N[C@H]2CCc3cc(-n4c(-c5cccnc5N)nc5ccc(-n6cccn6)nc54)ccc32)C(O)C1 (single isomer, unassigned) [Example 141, 1-[(3*,4*)-4-{[(1S)-5-[2-(2-aminopyridin-3-yl)-5-(pyrazol-1-yl)imidazo[4,5-b]pyridin-3-yl]-2,3-dihydro-1H-inden-1-yl]amino}-3-hydroxypiperidin-1-yl]prop-2-en-1-one]	554		872	148	1700
C=CC(=O)N1CCC(N[C@H]2CCc3cc(-n4c(-c5cccnc5N)nc5ccc(N6CCOCC6)nc54)ccc32)CC1 [Example 86, (S)-1-(4-((5-(2-(2-aminopyridin-3-yl)-5-morpholino-3H-imidazo[4,5-b]pyridin-3-yl)-2,3-dihydro-1H-inden-1-yl)amino)piperidin-1-yl)prop-2-en-1-one]	153	180	584	13.7	
C=CC(=O)N1CC2(CCC(N[C@H]3CCc4cc(-n5c(-c6cccnc6N)nc6ccc(-n7cccn7)nc65)ccc43)C2)C1 (single isomer, unassigned) [Example 91, 1-((*)-6-(((S)-5-(2-(2-aminopyridin-3-yl)-5-(1H-pyrazol-1-yl)-3H-imidazo[4,5-b]pyridin-3-yl)-2,3-dihydro-1H-inden-1-yl)amino)-2-azaspiro[3.4]octan-2-yl)prop-2-en-1-one]	116		558	36.6	351
C=CC(=O)N1CC2CC[C@@H]1CC2N[C@H]1CCc2cc(-n3c(-c4cccnc4N)nc4ccc(-n5cccn5)nc43)ccc21 (single isomer, unassigned) [Example 131, 1-[(1R,4R,5*)-5-{[(1S)-5-[2-(2-aminopyridin-3-yl)-5-(pyrazol-1-yl)imidazo[4,5-b]pyridin-3-yl]-2,3-dihydro-1H-inden-1-yl]amino}-2-azabicyclo[2.2.2]octan-2-yl]prop-2-en-1-one]	> 1000	1840	9530	> 1000	
C=CC(=O)N1CCC(N[C@H]2CCc3cc(-n4c(-c5cccnc5N)nc5ccc(N6CCCOCC6)nc54)ccc32)CC1 [Example 205, 1-(4-{[(1S)-5-[2-(2-aminopyridin-3-yl)-5-(1,4-oxazepan-4-yl)imidazo[4,5-b]pyridin-3-yl]-2,3-dihydro-1H-inden-1-yl]amino}piperidin-1-yl)prop-2-en-1-one]	112	1190	835	1740	
C=C1CCN(c2ccccc2C(=O)N[C@H]2CCc3cc(-n4c(-c5cccnc5N)nc5ccc(-n6cccn6)nc54)ccc32)C1=O [Example 42, (S)-N-(5-(2-(2-aminopyridin-3-yl)-5-(1H-pyrazol-1-yl)-3H-imidazo[4,5-b]pyridin-3-yl)-2,3-dihydro-1H-inden-1-yl)-2-(3-methylene-2-oxopyrrolidin-1-yl)benzamide]	897	3650	252	289	
C=CC(=O)NC1CC(N[C@H]2CCc3cc(-n4c(-c5cccnc5N)nc5ccc(-n6cccn6)nc54)ccc32)C1 (single isomer, unassigned) [Example 90, N-((1*,3*)-3-(((S)-5-(2-(2-aminopyridin-3-yl)-5-(1H-pyrazol-1-yl)-3H-imidazo[4,5-b]pyridin-3-yl)-2,3-dihydro-1H-inden-1-yl)amino)cyclobutyl)acrylamide]	156		109	41.2	351
C=CC(=O)N1CCC(N[C@H]2CCc3cc(-n4c(-c5cccnc5N)nc5ccc(-n6cccn6)nc54)ccc32)C[C@@H]1COC (single isomer, unassigned) [Example 165, 1-((2R,4*)-4-(((S)-5-(2-(2-aminopyridin-3-yl)-5-(1H-pyrazol-1-yl)-3H-imidazo[4,5-b]pyridin-3-yl)-2,3-dihydro-1H-inden-1-yl)amino)-2-(methoxymethyl)piperidin-1-yl)prop-2-en-1-one]	143		163	39.3	187
C=CC(=O)N1CCC(N[C@H]2CCc3cc(-n4c(-c5cccnc5N)nc5ccc(-c6cc7n(n6)CCOC7)nc54)ccc32)CC1 [Example 121, (S)-1-(4-((5-(2-(2-aminopyridin-3-yl)-5-(6,7-dihydro-4H-pyrazolo[5,1-c][1,4]oxazin-2-yl)-3H-imidazo[4,5-b]pyridin-3-yl)-2,3-dihydro-1H-inden-1-yl)amino)piperidin-1-yl)prop-2-en-1-one]	174	248	358	43.3	

Molecules with a lower IC50 [1], results first:

IC50 [1] [nM]	IC50 ([2]; Homo sapiens, LAPC4, 72 h) [nM]	IC50 [3] [nM]	IC50 [4] [nM]	IC50 ([2]; 72 h) [nM]	Compound
87.9	287	107	21.8		C=CC(=O)N1CCC(N(C)[C@H]2CCc3cc(-n4c(-c5cccnc5N)nc5ccc(-n6cccn6)nc54)ccc32)CC1 [Example 67, (S)-1-(4-((5-(2-(2-aminopyridin-3-yl)-5-(1H-pyrazol-1-yl)-3H-imidazo[4,5-b]pyridin-3-yl)-2,3-dihydro-1H-inden-1-yl)(methyl)amino)piperidin-1-yl)prop-2-en-1-one]
63	212	136	22		C=CC(=O)N1CC2(CCCC(N[C@H]3CCc4cc(-n5c(-c6cccnc6N)nc6ccc(-n7cccn7)nc65)ccc43)C2)C1 (single isomer, unassigned) [Example 78, 1-((*)-6-(((S)-5-(2-(2-aminopyridin-3-yl)-5-(1H-pyrazol-1-yl)-3H-imidazo[4,5-b]pyridin-3-yl)-2,3-dihydro-1H-inden-1-yl)amino)-2-azaspiro[3.5]nonan-2-yl)prop-2-en-1-one]
76.4		672	26.5	174	C=CC(=O)N1CCC(N[C@H]2CCc3cc(-n4c(-c5cccnc5N)nc5ccc(-n6cccn6)nc54)ccc32)C[C@H]1COC (single isomer, unassigned) [Example 130, 1-[(2S,4*)-4-{[(1S)-5-[2-(2-aminopyridin-3-yl)-5-(pyrazol-1-yl)imidazo[4,5-b]pyridin-3-yl]-2,3-dihydro-1H-inden-1-yl]amino}-2-(methoxymethyl)piperidin-1-yl]prop-2-en-1-one]
14.5	127	58.8	318		C=CC(=O)N1CCC(N[C@H]2CCc3cc(-n4c(-c5cccnc5N)nc5ccc(-c6nc(C)co6)nc54)ccc32)CC1 [Example 253, 1-(4-{[(1S)-5-[2-(2-aminopyridin-3-yl)-5-(4-methyl-1,3-oxazol-2-yl)imidazo[4,5-b]pyridin-3-yl]-2,3-dihydro-1H-inden-1-yl]amino}piperidin-1-yl)prop-2-en-1-one]
8.17		36.9	9.06	37.1	C=CC(=O)N1CCC(N[C@H]2CCc3cc(-n4c(-c5cccnc5N)nc5ccc(-n6cccn6)nc54)ccc32)c2ccccc21 (single isomer, unassigned) [Example 127, 1-[(4*)-4-{[(1S)-5-[2-(2-aminopyridin-3-yl)-5-(pyrazol-1-yl)imidazo[4,5-b]pyridin-3-yl]-2,3-dihydro-1H-inden-1-yl]amino}-3,4-dihydro-2H-quinolin-1-yl]prop-2-en-1-one]
15.7	203	72.3	186		C=CC(=O)N1CCC(N[C@H]2CCc3cc(-n4c(-c5cccnc5N)nc5ccc(-n6ccc(C7CCCC7)n6)nc54)ccc32)CC1 [Example 306, 1-(4-{[(1S)-5-[2-(2-aminopyridin-3-yl)-5-(3-cyclopentylpyrazol-1-yl)imidazo[4,5-b]pyridin-3-yl]-2,3-dihydro-1H-inden-1-yl]amino}piperidin-1-yl)prop-2-en-1-one]
53.6		135	9.09	187	C=CC(=O)N1CCC(N[C@H]2CCc3cc(-n4c(-c5cccnc5N)nc5ccc(-n6cccn6)nc54)ccc32)C(C)C1 (single isomer, unassigned) [Example 100, 1-((3*,4*)-4-(((S)-5-(2-(2-aminopyridin-3-yl)-5-(1H-pyrazol-1-yl)-3H-imidazo[4,5-b]pyridin-3-yl)-2,3-dihydro-1H-inden-1-yl)amino)-3-methylpiperidin-1-yl)prop-2-en-1-one]
5.51	137	41.4	247		C=CC(=O)N1CCC(N[C@H]2CCc3cc(-n4c(-c5cccnc5N)nc5ccc(-n6ccc(C7(C#N)CC7)n6)nc54)ccc32)CC1 [Example 322, (S)-1-(1-(3-(1-((1-acryloylpiperidin-4-yl)amino)-2,3-dihydro-1H-inden-5-yl)-2-(2-aminopyridin-3-yl)-3H-imidazo[4,5-b]pyridin-5-yl)-1H-pyrazol-3-yl)cyclopropane-1-carbonitrile]
